Columns and labels:
Type in all cases: in vivo
Chilo suppressalis = assay: Striped stem borer (Chilo suppressalis), sprayed petriplates with rice straw; details: 300 ppm; first-instar larvae, 72 hours after treatment
Description: (§1) The active compound is dissolved at the desired concentration in a mixture of 1:1 (vol:vol) distilled water: acetone. Surfactant (Kinetic® HV) is added at a rate of 0.01% (vol/vol). The test solution is prepared at the day of use.
Ten first-instar larvae are allowed to crawl on sprayed petriplates for 1 minute and then provided with one freshly cut rice straw per plate. After 10 minutes when all of the larvae are inside the straw will then be covered with Petri lid. Percent mortality is recorded after 72 hours after treatment.

Anthonomus grandis = assay: Boll weevil (Anthonomus grandis) control, microtiter plate insect diet test; details: 120 h, egg and larval mortality after 5 days, read-out: mortality in comparison with untreated controls
Description: For evaluating control of boll weevil (Anthonomus grandis) the test unit consisted of 96-well-microtiter plates containing an insect diet and 5-10 A. grandis eggs.
The compounds were formulated using a solution containing 75% v/v water and 25% v/v DMSO. Different concentrations of formulated compounds were sprayed onto the insect diet at 5 μl, using a custom built micro atomizer, at two replications.
After application, microtiter plates were incubated at about 25±1° C. and about 75±5% relative humidity for 5 days. Egg and larval mortality was then visually assessed.

Heliothis virescens = assay: Tobacco budworm (Heliothis virescens) control, microtiter plate insect diet test; details: 120 h, egg and larval mortality after 5 days, read-out: mortality in comparison with untreated controls
Description: For evaluating control of tobacco budworm (Heliothis virescens) the test unit consisted of 96-well-microtiter plates containing an insect diet and 15-25 H. virescens eggs.
The compounds were formulated using a solution containing 75% v/v water and 25% v/v DMSO. Different concentrations of formulated compounds were sprayed onto the insect diet at 10 μl, using a custom built micro atomizer, at two replications.
After application, microtiter plates were incubated at about 28±1° C. and about 80±5% relative humidity for 5 days. Egg and larval mortality was then visually assessed.

Plutella xylostella = assay: Diamond back moth (Plutella xylostella), cabbage leaf dip test; details: foliar, 3rd instar larvae, 72 hours after treatment, read-out: mortality in comparison with untreated controls
Description: as §1
Leaves of cabbage were dipped in test solution and air-dried. Treated leaves were placed in petri dishes lined with moist filter paper and inoculated with ten 3rd instar larvae. Mortality was recorded 72 hours after treatment. Feeding damages were also recorded using a scale of 0-100%.

Myzuspersicae = assay: Green peach aphid (Myzuspersicae) control through systemic means, artificial diet under membrane; details: Myzus persicae, 72 h, adult aphids on treated diet, 3 days, read-out: mortality in comparison with untreated controls
Excerpt: For evaluating control of green peach aphid (Myzuspersicae) through systemic means the test unit consisted of 96-well-microtiter plates containing liquid artificial diet under an artificial membrane.
The compounds were formulated using a solution containing 75% v/v water and 25% v/v DMSO. Different concentrations of formulated compounds were pipetted into the aphid diet, using a custom built pipetter, at two replications.
After application, 5-8 adult aphids were placed on the artificial membrane inside the microtiter plate wells. The aphids were then allowed to suck on the treated aphid diet and incubated at about 23±1° C. and about 50±5% relative humidity for 3 days. Aphid mortality and fecundity was then visually assessed.

Spodoptera Eridania = assay: Southern armyworm (Spodoptera Eridania), sprayed lima bean plants; details: 96 h, larvae, 4 days after treatment, read-out: mortality in comparison with untreated controls
Description: The active compounds were formulated by a Tecan liquid handler in 100% cyclohexanone as a 10,000 ppm solution supplied in tubes. The 10,000 ppm solution was serially diluted in 100% cyclohexanone to make interim solutions. These served as stock solutions for which final dilutions were made by the Tecan in 50% acetone:50% water (v/v) into 10 or 20 ml glass vials. A nonionic surfactant (Kinetic®) was included in the solution at a volume of 0.01% (v/v). The vials were then inserted into an automated electrostatic sprayer equipped with an atomizing nozzle for application to plants/insects.
Lima bean plants (variety Sieva) were grown 2 plants to a pot and selected for treatment at the 1st true leaf stage. Test solutions were sprayed onto the foliage by an automated electrostatic plant sprayer equipped with an atomizing spray nozzle. The plants were dried in the sprayer fume hood and then removed from the sprayer. Each pot was placed into perforated plastic bags with a zip closure. About 10 to 11 armyworm larvae were placed into the bag and the bags zipped closed. Test plants were maintained in a growth room at about 250C and about 20-40% relative humidity for 4 days, avoiding direct exposure to fluorescent light (24 hour photoperiod) to prevent trapping of heat inside the bags. Mortality and reduced feeding were assessed 4 days after treatment, compared to untreated control plants.

Bemisia argentifolii = assay: Silverleaf whitefly (Bemisia argentifolii), sprayed cotton plants; details: 72 h, adults, 3 days after treatment, read-out: mortality in comparison with untreated controls
Description: The active compounds were formulated by a Tecan liquid handler in 100% cyclohexanone as a 10,000 ppm solution supplied in tubes. The 10,000 ppm solution was serially diluted in 100% cyclohexanone to make interim solutions. These served as stock solutions for which final dilutions were made by the Tecan in 50% acetone:50% water (v/v) into 5 or 10 ml glass vials. A nonionic surfactant (Kinetic®) was included in the solution at a volume of 0.01% (v/v). The vials were then inserted into an automated electrostatic sprayer equipped with an atomizing nozzle for application to plants/insects.
Cotton plants at the cotyledon stage (one plant per pot) were sprayed by an automated electrostatic plant sprayer equipped with an atomizing spray nozzle. The plants were dried in the sprayer fume hood and then removed from the sprayer. Each pot was pla-ced into a plastic cup and about 10 to 12 whitefly adults (approximately 3-5 days old) were introduced. The insects were collected using an aspirator and a nontoxic Tygon® tubing connected to a barrier pipette tip. The tip, containing the collected insects, was then gently inserted into the soil containing the treated plant, allowing insects to crawl out of the tip to reach the foliage for feeding. Cups were covered with a reusable screened lid. […] Mortality was assessed 3 days after treatment, compared to untreated control plants.

Megoura viciae = assay: Vetch aphid (Megoura viciae) control, broad bean leaf disk test; details: foliar, 120 h, adult aphids on treated leaf disks, 5 days, read-out: mortality in comparison with untreated controls
Description: For evaluating control of vetch aphid (Megoura viciae) through contact or systemic means the test unit consisted of 24-well-microtiter plates containing broad bean leaf disks.
The compounds were formulated using a solution containing 75% v/v water and 25% v/v DMSO. Different concentrations of formulated compounds were sprayed onto the leaf disks at 2.5 μl, using a custom built micro atomizer, at two replications.
After application, the leaf disks were air-dried and 5-8 adult aphids placed on the leaf disks inside the microtiter plate wells. The aphids were then allowed to suck on the treated leaf disks and incubated at about 23±1° C. and about 50±5% relative humidity for 5 days. Aphid mortality and fecundity was then visually assessed.

Aphis craccivora = assay: Cowpea aphid (Aphis craccivora), sprayed potted cowpea plants; details: after 72 hours, read-out: mortality in comparison with untreated controls
Description: as §1
Potted cowpea plants were colonized with approximately 30-50 aphids of various stages by manually transferring a leaf tissue cut from infested plant 24 hours before application. Plants were sprayed with the test solutions using a DeVilbiss® hand atomizer at 20-30 psi (=1.38 to 2.07 bar) after the pest population has been checked. Treated plants are maintained on light carts at about 25-26° C. Percent mortality was assessed after 72 hours.

Nephotettix virescens = assay: Rice green leafhopper (Nephotettix virescens), sprayed rice seedlings; details: adults, after 72 hours, read-out: mortality in comparison with untreated controls
Description: (§2) Four to five-week old rice seedlings with cut upper leaf portion were cleaned and washed 24 hours before spraying. The active compounds were formulated in 1:1 acetone:water (vol:vol), and 0.01% vol/vol surfactant (Kinetic® HV) was added. Potted rice seedlings were sprayed with 5-6 ml test solution, air dried, covered with Mylar cages and inoculated with 10 adults. Treated rice plants were kept at about 28-29° C. and relative humidity of about 50-60%. Percent mortality was recorded after 72 hours.

Nilaparvata lugens = assay: Rice brown plant hopper (Nilaparvata lugens), sprayed rice seedlings; details: adults, after 72 hours, read-out: mortality in comparison with untreated controls
Description: as §2, with “seedlings” for “seedlings with cut upper leaf portion”, “(vol:vol)” for “(vol:vol),”

Nezara viridula = assay: Green soldier stink bug (Nezara viridula), sprayed soybean pods in Petri dishes; details: 120 h, late 3rd instar, after 5 days, read-out: mortality in comparison with untreated controls
Description: The active compound is dissolved at the desired concentration in a mixture of 1:1 (vol:vol) distilled water: aceteone. Surfactant (Kinetic® HV) is added at a rate of 0.01% (vol/vol). The test solution is prepared at the day of use.
Soybean pods were placed in 90×50 mm glass Petri dishes lined with moist filter paper and inoculated with ten late 3rd instar N. viridula. Using a hand atomizer, an approximately 2 ml solution is sprayed into each Petri dish. Treated cups were kept at about 25-26° C. and relative humidity of about 65-70%. Percent mortality was recorded after 5 days.

Compound | mortality in comparison with untreated controls (Chilo suppressalis) | mortality at 2500 ppm (Anthonomus grandis) [%] | mortality at 2500 ppm (Heliothis virescens) [%] | mortality at 300 ppm (Plutella xylostella) [%] | mortality at 2500 ppm (Myzuspersicae) [%] | mortality at 300 ppm (Spodoptera Eridania) [%] | mortality at 300 ppm (Bemisia argentifolii) [%] | mortality at 2500 ppm (Megoura viciae) [%] | mortality at 300 ppm (Aphis craccivora) [%] | mortality at 300 ppm (Nephotettix virescens) [%] | mortality at 300 ppm (Nilaparvata lugens) [%] | mortality at 300 ppm (Nezara viridula) [%]
CCS(=O)(=O)c1cc(-c2ncccc2F)cnc1-c1cn2c(=O)n(C)c(C(F)(F)F)cc2n1 [I-1-4] | over 75% | – | – | – | – | – | – | – | – | – | – | –
CCS(=O)(=O)c1ccc(-n2cnc(C(F)(F)F)n2)nc1-c1cn2c(=O)n(C)c(C(F)(F)F)cc2n1 [I-1-1, 2-[3-ethylsulfonyl-6-[3-(trifluoromethyl)-1,2,4-triazol-1-yl]-2-pyridyl]-6-methyl-7-(trifluoromethyl)imidazo[1,2-c]pyrimidin-5-one] | – | > 75 | > 75 | > 75 | > 75 | > 75 | > 75 | – | – | – | – | –
CCS(=O)(=O)c1cc(N2CCCC2=O)cnc1-c1cn2c(=O)n(C)c(C(F)(F)F)cc2n1 [I-1-3, 2-[3-ethylsulfonyl-5-(2-oxopyrrolidin-1-yl)-2-pyridyl]-6-methyl-7-(trifluoromethyl)imidazo[1,2-c]pyrimidin-5-one] | – | > 75 | > 75 | – | > 75 | > 75 | – | > 75 | > 75 | > 75 | > 75 | > 75

Source: patent US11591335B2, “Bicyclic pesticidal compounds” (BASF SE, priority 2017, dated 2023)
